Measured values as given in patent US20120232062A1, “AZAINDAZOLES TO TREAT FLAVIVIRIDAE VIRUS INFECTION” (EIGER BIOPHARMACEUTICALS, INC., priority 2009, published 2012).
pEC50, pIC50: −log10 of the molar value.

Columns and labels:
FTase = FTase (Homo sapiens, UniProt P49356); conditions: cited from earlier work
hERG channel = target: T1, hERG channel (Homo sapiens, UniProt Q12809); assay: hERG channel assay; format: cell-based; conditions: CHO cell line expressing hERG, whole cell recordings
T1 construct: host or cells: CHO (Chinese Hamster Ovary), stably transfected
T1 sequence (Q12809 whole entry): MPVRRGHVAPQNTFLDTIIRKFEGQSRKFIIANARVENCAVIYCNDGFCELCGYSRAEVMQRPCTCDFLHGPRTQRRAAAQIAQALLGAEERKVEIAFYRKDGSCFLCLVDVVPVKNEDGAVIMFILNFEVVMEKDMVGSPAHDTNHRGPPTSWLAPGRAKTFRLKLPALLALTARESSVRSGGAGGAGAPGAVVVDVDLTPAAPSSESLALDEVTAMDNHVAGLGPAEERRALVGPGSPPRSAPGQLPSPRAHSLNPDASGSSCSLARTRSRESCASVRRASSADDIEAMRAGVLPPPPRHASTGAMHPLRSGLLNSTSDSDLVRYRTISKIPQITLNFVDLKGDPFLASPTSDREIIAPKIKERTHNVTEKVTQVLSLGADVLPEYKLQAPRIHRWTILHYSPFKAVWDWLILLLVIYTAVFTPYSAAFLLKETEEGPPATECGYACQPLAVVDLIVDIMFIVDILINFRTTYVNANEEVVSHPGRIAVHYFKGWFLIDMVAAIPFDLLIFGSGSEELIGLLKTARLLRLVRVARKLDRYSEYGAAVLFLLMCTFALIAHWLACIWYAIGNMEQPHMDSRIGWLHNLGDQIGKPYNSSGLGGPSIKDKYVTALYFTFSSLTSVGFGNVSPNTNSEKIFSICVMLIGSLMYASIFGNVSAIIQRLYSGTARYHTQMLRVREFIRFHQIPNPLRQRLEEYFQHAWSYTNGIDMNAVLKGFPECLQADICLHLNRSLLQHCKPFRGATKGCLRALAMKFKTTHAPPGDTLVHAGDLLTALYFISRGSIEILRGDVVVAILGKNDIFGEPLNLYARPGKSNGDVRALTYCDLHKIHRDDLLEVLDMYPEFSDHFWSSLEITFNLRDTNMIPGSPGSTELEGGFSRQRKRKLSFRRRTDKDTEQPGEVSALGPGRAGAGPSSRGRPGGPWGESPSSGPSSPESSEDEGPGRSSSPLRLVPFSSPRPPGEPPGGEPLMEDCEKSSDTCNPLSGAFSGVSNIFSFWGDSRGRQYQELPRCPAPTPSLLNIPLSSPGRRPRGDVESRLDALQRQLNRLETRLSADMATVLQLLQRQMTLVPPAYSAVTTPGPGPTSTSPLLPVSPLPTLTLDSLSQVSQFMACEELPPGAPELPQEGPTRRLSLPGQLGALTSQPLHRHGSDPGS
Procedure: The most common mechanism for these adverse events is the inhibition of one or more cardiac potassium channels, in particular hERG. This current is important for cardiac myocyte repolarization and is a common target for drugs that prolong the QT interval. Test articles in this study were therefore characterized to determine their ability to inhibit the hERG channel. Ion channel activity was measured using a stably transfected Chinese Hamster Ovary (CHO) cell line expressing the hERG mRNA. The pharmacology of this cloned channel expressed in the CHO cell line is very similar to that observed in native tissue.
Cells: AVIVA's CHO cell line, which stably expresses hERG channels, was used for the study. Cells were cultured in DMEM/F12 containing 10% FBS, 1% penicillin/streptomycin and 500 μg/ml G418. Before testing, cells were harvested using Accumax (Innovative Cell Technologies).
Solutions: For electrophysiological recordings, the following solutions were used. External Solution: 2 mM CaCl2; 2 mM MgCl2; 4 mM KCl; 150 mM NaCl; 10 mM Glucose; 10 mM HEPES; 310-320 mOsm; pH 7.4 (adjusted with 1M NaOH). Internal Solution: 140 mM KCl; 10 mM MgCl2; 6 mM EGTA; 5 mM HEPESNa; […]; 300-320 mOsm; pH 7.25 (adjusted with 1M KOH).
Electrophysiology: Whole cell recordings were performed using PX 7000A (Axon Instruments) with VIVA's SealChip™ technology. Cells were voltage clamped at a holding potential of −80 mV. The hERG current was then activated by a depolarizing step to −50 mV for 300 ms. This first step at −50 mV was used as a baseline for measuring peak amplitude of the tail current. Next, a voltage step to +20 mV was applied for 5 s to activate the channels. Finally a step back to −50 mV for 5 seconds removed activation and the deactivating tail current was recorded.
Compound Handling and Dilutions: All compounds were prepared from either 10 or 30 mM DMSO stock solutions. Solutions were mixed by sonication for 20 min, followed by vigorous vortexing. Prior to testing, compounds were diluted to test concentrations in glass vials using External Solution. Dilutions were prepared no longer than 20 min prior to use. Equal amounts of DMSO (0.1%) were present in all final dilutions.
Electrophysiology Procedures: After achieving whole cell configuration, cells were monitored for 90 s to assess stability and then washed with External Solution for 66 s. The voltage protocol described above was then applied to the cells every 12 s throughout the procedure. Only stable cells with recording parameters above threshold (see Quality Control section) were allowed to enter the drug addition procedure. External solution containing 0.1% DMSO (vehicle) was applied to the cells to establish a baseline. After allowing the current to stabilize for 3 to 5 min, test articles were applied. Test article solutions were added to cells in 4 separate additions. Cells were kept in test solution until effect of the test article reached steady state, to a maximum of 12 min. Next, 1 μM cisapride (positive control) was added. Finally, washout with External Solution was performed until the recovery current reached a steady state.
Data Analysis: Data analysis was performed using DataXpress (Axon Instruments), Clampfit (Axon Instruments) and Origin (Originlab Corporation) software.

HCV genotype 1b = assay: HCV 1b replicon luciferase assay; format: cell-based; conditions: Hepatitis C virus, Huh-7, 48 h, Table 1; Huh7 HCV 1b replicon, luciferase reporter, 48 hours; read-out: 1b EC50
Procedure, shortened: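 Luminescence (Steady-Glo) served as the replication read-out after 48 h compound exposure of 1b replicon-luciferase Huh7 cells seeded at 10k/well. Dosing used 5-fold serial dilutions, 10 concentrations, top 25 μM final, 0.1% DMSO, duplicates.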

[1] = Liver microsome stability, mouse; format: in vitro ADME, CD-1 mouse
Source text: (§1) Metabolic stability assays are designed to measure the stability of a test compound in a variety of assay matrices from human and animal species. From a metabolism perspective, a drug would be relatively stable, have a small first-pass effect, and maintain an effective concentration in blood for a reasonable period of time. A microsomal preparation from the liver contains all CYP isozymes and other membrane-bound drug metabolizing enzymes which are responsible for the metabolism for the majority of drugs in humans. Metabolic stability in liver microsomes can determine half-life (T1/2) and intrinsic clearance (Clint). The determination of Clint may be useful to determine whether metabolism is the major elimination pathway when it is compared to total body clearance in vivo. For high metabolic stability in liver microsomes: […] Human, Sprague Dawley rat, and CD-1 mouse liver microsome samples were purchased from BD Gentest. An in vitro metabolic stability assay suitable for use in predicting first pass metabolism of the compounds useful in the methods of the invention is described in this example. […] 6 mM NADPH in 0.1 M K-phosphate buffer is prepared by dissolving 25.1 mg of NADPH tetrasodium salt in 5 mL of K-phosphate buffer. […] The plate is pre-incubated at 37° C. for 10 minutes. 15 μL of NADPH stock solution (6 mM) is added to the wells designated for Time 60 and timed. At 30 min, 15 min, and 5 min, 15 μL of NADPH stock solution (6 mM) is added to the wells. At the end of incubation, 135 μL of ACN containing IS is added to all the wells (60 min, 30 min, 15 min, 5 min and 0 min). Then 15 μL of NADPH stock solution (6 mM) is added to the wells designated as Time 0.

[2] = Liver microsome stability, rat; format: in vitro ADME, Sprague Dawley rat
Source text: as §1

[3] = Liver microsome stability, human; format: in vitro ADME
Source text: as §1

Cn1cncc1C(N)(c1ccc(Cl)cc1)c1ccc2c(c1)c(-c1cccc(Cl)c1)cc(=O)n2C (stereo not drawn) [Tipifarnib, 6-[Amino(4-chlorophenyl)-1-methyl-1H-imidazol-5-ylmethyl]-4-(3-chlorophenyl)-1-methyl-2(1H)-quinolinone]
pIC50 (FTase): 9.07

O=C(NC1CCNCC1)c1n[nH]c2nc(N3CCCCCC3)ccc12 [compound 655]
pIC50 (hERG channel): 5.87 | pEC50 (HCV genotype 1b): 5.46 to 5.68

Cn1nc(N)c2ccc(N3CCCCCC3)nc21 [compound 658]
pIC50 (hERG channel): < 5.00 | pEC50 (HCV genotype 1b): 5.66 to 6.40

Cn1nc(NC(=O)c2cccs2)c2ccc(N3CCCCCC3)nc21 [compound 659]
pIC50 (hERG channel): < 5.00 | pEC50 (HCV genotype 1b): 5.31 to 5.74

O=C(Nc1n[nH]c2nc(N3CCCCCC3)ccc12)C1CCNCC1 [compound 680]
pIC50 (hERG channel): < 5.00 | pEC50 (HCV genotype 1b): 5.39

Cn1nc(C(=O)Nc2ccncc2)c2ccc(N3CCCCCC3)nc21 [compound 701]
pIC50 (hERG channel): < 5.00 | pEC50 (HCV genotype 1b): 5.96

O=C(NCC1CCNCC1)c1n[nH]c2nc(N3CCCCCC3)ccc12 [compound 702]
pIC50 (hERG channel): < 5.00 | pEC50 (HCV genotype 1b): 5.47

O=C(NCC1CCCNC1)c1n[nH]c2nc(N3CCCCCC3)ccc12 (stereo not drawn) [compound 703]
pIC50 (hERG channel): 5.06 | pEC50 (HCV genotype 1b): 5.66

O=C(NC1CCNCC1)c1n[nH]c2nc(OC3CCCCC3)ccc12 [compound 729]
pIC50 (hERG channel): < 5.00 | pEC50 (HCV genotype 1b): 5.74

CC(C)CN(C)c1ccc2c(C(=O)NC3CCNCC3)n[nH]c2n1 [compound 738]
pIC50 (hERG channel): < 5.00 | pEC50 (HCV genotype 1b): 5.66

O=C(NC1CCNCC1)c1n[nH]c2nc(O)ccc12 [compound 744]
pIC50 (hERG channel): < 5.00 | pEC50 (HCV genotype 1b): 5.82

O=C(Nc1nn(Cc2ccc(Cl)cc2)c2nc(N3CCCCCC3)ccc12)C1CCCNC1 (stereo not drawn) [compound 745]
pIC50 (hERG channel): < 5.00 | pEC50 (HCV genotype 1b): 5.52

CCC(CC)Oc1ccc2c(COCC3CCNCC3)nn(Cc3ccc(Cl)cc3)c2n1 [compound 756]
pIC50 (hERG channel; human, CHO cells stably expressing hERG, pH 7.4): 5.00 | pEC50 (HCV genotype 1b): 5.66

Cn1nc(C(=O)NC2CCN(CC3CCCCC3)CC2)c2ccc(N3CCCCCC3)nc21 [compound 987]
pIC50 (hERG channel): 6.06 | pEC50 (HCV genotype 1b): 6.26

CC1CCC(C)N1CCOCc1nn(C)c2nc(N3CCCCCC3)ccc12 (stereo not drawn) [compound 1540]
mouse liver microsome (MLM), % parent remaining ([1]; after 15 min): 34 % parent remaining | mouse liver microsome (MLM), % parent remaining ([1]; after 30 min): 18 % parent remaining | mouse liver microsome (MLM), % parent remaining ([1]; after 60 min): 10 % parent remaining | pEC50 (HCV genotype 1b): 5.57 | rat liver microsome (RLM), % parent remaining ([2]; after 15 min): 17 % parent remaining | rat liver microsome (RLM), % parent remaining ([2]; after 30 min): 2 % parent remaining | rat liver microsome (RLM), % parent remaining ([2]; after 60 min): 4 % parent remaining | human liver microsome (HLM, % parent remaining) ([3]; after 15 min): 17 % parent remaining | human liver microsome (HLM, % parent remaining) ([3]; after 30 min): 9 % parent remaining | human liver microsome (HLM, % parent remaining) ([3]; after 60 min): 4 % parent remaining

CC1CCCCN1CCOCc1nn(C)c2nc(N3CCCCCC3)ccc12 (stereo not drawn) [compound 1549]
mouse liver microsome (MLM), % parent remaining ([1]; after 15 min): 27 % parent remaining | mouse liver microsome (MLM), % parent remaining ([1]; after 30 min): 17 % parent remaining | mouse liver microsome (MLM), % parent remaining ([1]; after 60 min): 13 % parent remaining | pEC50 (HCV genotype 1b): 5.40 | rat liver microsome (RLM), % parent remaining ([2]; after 15 min): 52 % parent remaining | rat liver microsome (RLM), % parent remaining ([2]; after 30 min): 31 % parent remaining | rat liver microsome (RLM), % parent remaining ([2]; after 60 min): 17 % parent remaining | human liver microsome (HLM, % parent remaining) ([3]; after 15 min): 16 % parent remaining | human liver microsome (HLM, % parent remaining) ([3]; after 30 min): 11 % parent remaining | human liver microsome (HLM, % parent remaining) ([3]; after 60 min): 13 % parent remaining

Cn1nc(C(=O)NC2CCN(CCN3CCCCC3CO)CC2)c2ccc(N3CCCCCC3)nc21 (stereo not drawn) [compound 1559]
mouse liver microsome (MLM), % parent remaining ([1]; after 15 min): 54 % parent remaining | mouse liver microsome (MLM), % parent remaining ([1]; after 30 min): 27 % parent remaining | mouse liver microsome (MLM), % parent remaining ([1]; after 60 min): 5 % parent remaining | pEC50 (HCV genotype 1b): 5.74 | rat liver microsome (RLM), % parent remaining ([2]; after 15 min): 57 % parent remaining | rat liver microsome (RLM), % parent remaining ([2]; after 30 min): 31 % parent remaining | rat liver microsome (RLM), % parent remaining ([2]; after 60 min): 8 % parent remaining | human liver microsome (HLM, % parent remaining) ([3]; after 15 min): 65 % parent remaining | human liver microsome (HLM, % parent remaining) ([3]; after 30 min): 32 % parent remaining | human liver microsome (HLM, % parent remaining) ([3]; after 60 min): 7 % parent remaining
